# From ChEMBL document CHEMBL1201862, “PubChem BioAssay data set” (2004)
#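 In this assay, cells in 96-well plates receive the compound at five concentrations for 48 hours. Endpoints are linearly interpolated between the surrounding concentrations. The concentration for 50% growth inhibition is given as GI50.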 The source made the active and inactive calls. Cut-off read from the data, not from the text of the source: active = GI50 up to about 1.1 µM and inactive = higher.
# How the values were obtained:
# Assay in all cases: inhibition of tumour cell growth, NCI panel, 48 h
# [1] = test system: A498
# [2] = test system: A549
# [3] = test system: ACHN
# [4] = test system: COLO 205
# [5] = test system: HCT-15
# [6] = test system: HL-60
# [7] = test system: HOP-92
# [8] = test system: KM12
# [9] = test system: MDA-MB-231
# [10] = test system: MOLT-4
# [11] = test system: Malme-3M
# [12] = test system: NCI-H23
# [13] = test system: OVCAR-3
# [14] = test system: OVCAR-4
# [15] = test system: RPMI-8226
# [16] = test system: SF-539
# [17] = test system: SK-OV-3
# [18] = test system: SN12C
# [19] = test system: SNB-19
# [20] = test system: SR
Compound,GI50 [1],GI50 [2],GI50 [3],GI50 [4],GI50 [5] [µM],GI50 [6],GI50 [7],GI50 [8],GI50 [9],GI50 [10],GI50 [11],GI50 [12],GI50 [13],GI50 [14],GI50 [15],GI50 [16],GI50 [17],GI50 [18],GI50 [19],GI50 [20]
N#CC(C#N)=CNCCN1CCN(C=C(C#N)C#N)CC1,> 100 µM (inactive),> 100 µM (inactive),> 100 µM (inactive),> 100 µM (inactive),> 100,> 100 µM (inactive),> 100 µM (inactive),> 100 µM (inactive),> 100 µM (inactive),> 100 µM (inactive),> 100 µM (inactive),> 100 µM (inactive),> 100 µM (inactive),> 100 µM (inactive),> 100 µM (inactive),> 100 µM (inactive),> 100 µM (inactive),> 100 µM (inactive),> 100 µM (inactive),> 100 µM (inactive)
COc1ccc(Oc2cnn(C(Br)(Br)C(C)=O)c(=O)c2Br)cc1,24.8 µM (inactive),24 µM (inactive),13.6 µM (inactive),13.4 µM (inactive),16,1.97 µM (inactive),14.7 µM (inactive),14.8 µM (inactive),17.9 µM (inactive),0.861 µM (active),17.1 µM (inactive),17.9 µM (inactive),4.19 µM (inactive),17.4 µM (inactive),3.14 µM (inactive),12.4 µM (inactive),24.3 µM (inactive),15 µM (inactive),24.5 µM (inactive),1.69 µM (inactive)
Cc1cc(=O)n2nc(SCc3ccccc3)sc2n1,> 100 µM (inactive),> 100 µM (inactive),22.8 µM (inactive),> 100 µM (inactive),> 100,> 100 µM (inactive),94.8 µM (inactive),> 100 µM (inactive),> 100 µM (inactive),46.5 µM (inactive),> 100 µM (inactive),> 100 µM (inactive),> 100 µM (inactive),> 100 µM (inactive),> 100 µM (inactive),> 100 µM (inactive),> 100 µM (inactive),> 100 µM (inactive),> 100 µM (inactive),> 100 µM (inactive)
O=C1C(C(O)(C(F)(F)Cl)C(F)(F)Cl)CCC1C(O)(C(F)(F)Cl)C(F)(F)Cl (stereo not given),3.85 µM (inactive),9.57 µM (inactive),3.81 µM (inactive),4.17 µM (inactive),3.91,> 10 µM (inactive),2.09 µM (inactive),4.45 µM (inactive),3.34 µM (inactive),5.55 µM (inactive),5.47 µM (inactive),2.8 µM (inactive),7.28 µM (inactive),3.4 µM (inactive),> 10 µM (inactive),2.74 µM (inactive),5.51 µM (inactive),6.87 µM (inactive),4.3 µM (inactive),> 10 µM (inactive)
COC(=O)C1=C(OC(=O)/C(=C/c2ccc(Cl)cc2Cl)c2ccc(Cl)cc2Cl)C(C(=O)OC)[C@@]2(O)[C@@H](C(=O)OC)[C@H](C)C[C@@H]1[C@@H]2C(=O)OC (stereo not given in full),> 100 µM (inactive),13.5 µM (inactive),> 100 µM (inactive),> 100 µM (inactive),> 100,> 100 µM (inactive),22.9 µM (inactive),> 100 µM (inactive),40 µM (inactive),> 100 µM (inactive),> 100 µM (inactive),> 100 µM (inactive),> 100 µM (inactive),> 100 µM (inactive),> 100 µM (inactive),> 100 µM (inactive),> 100 µM (inactive),> 100 µM (inactive),> 100 µM (inactive),> 100 µM (inactive)
CC1(C)OCC(C2OC(=O)C(OCc3ccccc3)=C2OCc2ccccc2)O1 (stereo not given),22.1 µM (inactive),32.9 µM (inactive),31.5 µM (inactive),22.2 µM (inactive),30.9,22.9 µM (inactive),23 µM (inactive),32 µM (inactive),24.6 µM (inactive),23 µM (inactive),29.9 µM (inactive),18.4 µM (inactive),49.2 µM (inactive),42.2 µM (inactive),24 µM (inactive),72.6 µM (inactive),52.6 µM (inactive),39.4 µM (inactive),55.3 µM (inactive),28.4 µM (inactive)
O=C(CCl)Nc1ccc(C(=O)N/N=C/c2ccc(Cl)cc2)cc1,2.21 µM (inactive),6.07 µM (inactive),2.59 µM (inactive),0.731 µM (active),4.63,1.6 µM (inactive),2 µM (inactive),0.889 µM (active),1.94 µM (inactive),1.9 µM (inactive),2.01 µM (inactive),2.44 µM (inactive),1.84 µM (inactive),2.09 µM (inactive),2.42 µM (inactive),2.01 µM (inactive),3.03 µM (inactive),2.84 µM (inactive),7.41 µM (inactive),1.79 µM (inactive)
O=c1[nH]nc(Cc2ccccc2)n1/N=C/c1c[nH]c2ccccc12,> 100 µM (inactive),66.1 µM (inactive),> 100 µM (inactive),> 100 µM (inactive),> 100,> 100 µM (inactive),> 100 µM (inactive),> 100 µM (inactive),59 µM (inactive),> 100 µM (inactive),57.1 µM (inactive),> 100 µM (inactive),> 100 µM (inactive),42.5 µM (inactive),> 100 µM (inactive),> 100 µM (inactive),96.2 µM (inactive),> 100 µM (inactive),49.5 µM (inactive),> 100 µM (inactive)
O=C(O)c1nc(-c2ccccn2)c(-c2ccccn2)nc1C(=O)O,1.61 µM (inactive),1.12 µM (inactive),0.678 µM (active),2.47 µM (inactive),0.384,2.25 µM (inactive),9.51 µM (inactive),2.75 µM (inactive),9.82 µM (inactive),2.3 µM (inactive),1.66 µM (inactive),5.3 µM (inactive),2.87 µM (inactive),2 µM (inactive),2.86 µM (inactive),3.38 µM (inactive),3.77 µM (inactive),3.27 µM (inactive),5.04 µM (inactive),2.03 µM (inactive)
CN(C)CCNC(=O)c1ccc(NCCCN(C)CCCNc2ccc3c(=O)n(CCN(C)C)c(=O)n4c5ccccc5c(=O)c2c34)c2c(O)c3ccccc3nc12,0.0759 µM (active),< 0.01 µM (active),< 0.01 µM (active),< 0.0108 µM (active),0.0155,0.0318 µM (active),0.114 µM (active),< 0.01 µM (active),< 0.027 µM (active),< 0.01 µM (active),0.0271 µM (active),< 0.0146 µM (active),< 0.011 µM (active),< 0.01 µM (active),< 0.01 µM (active),0.138 µM (active),< 0.01 µM (active),< 0.01 µM (active),< 0.01 µM (active),< 0.01 µM (active)
